From US9458213B2, “Compositions and methods for diagnosing prostate cancer based on detection of SLC45A3-ELK4 fusion transcript” (CORNELL UNIVERSITY, priority 2009, dated 2016)

What was measured:
[1] = test system: endogenous ELK4 mRNA in LNCaP cells; test: Hormonal treatment of LNCaP cells, quantitative RT-PCR (TAQMAN) of endogenous ELK4; assay type: cell-based, human
Procedure: (§1) FIGS. 4a-4c. Androgen stimulation of LNCaP cells and induction of SLC45A3-ELK4 (FIG. 4a), endogenous ELK4 (FIG. 4b) mRNA and KLK3 (PSA) mRNA (FIG. 4c). Bar charts are the average fold induction in LNCaP cells treated with 1nM R1881 in the absence (black bars) or presence (gray bars) of 10 μM flutamide at the indicated time points. For flutamide treatment cells were pre-treated 2 hours with 10 μM flutamide, medium was removed and the fresh medium plus 1 nM R1881 plus 10 μM flutamide were given for the indicated time points. All experiments were run in triplicates (standard deviation indicated by the error bars).
(§2) Quantitative RT-PCR using TAQMAN technology. To quantify SLC45A3-ELK4 and endogenous ELK4 transcripts, custom designed primers and probes (SLC45A3-ELK4: primers in SLC45A3 exon 1 and ELK4 exon 2, probe in ELK4 exon 2) were employed in (ELK4, Hs00360812_m1) TAQMAN Gene Expression Assays (Applied Biosystems, Foster City, Calif.) for improved sensitivity and specificity of detection. […] Each target was run in triplicate and expression levels were calculated using the comparative Ct method (ABI Bulletin 2, Applied Biosytems) with TCFL1 as a reference gene and given as fold change over the average expression levels of benign samples. […]

[2] = test system: SLC45A3-ELK4 mRNA in LNCaP cells; test: Hormonal treatment of LNCaP cells, quantitative RT-PCR (TAQMAN) of SLC45A3-ELK4 fusion transcript; assay type: cell-based, human
Procedure: as §1, §2

[3] = LNCaP cells treated with R1881 (summary statement)
[4] = LNCaP cells, R1881 1 nM, twelve hours following treatment

## C[C@]1(O)CC[C@H]2[C@@H]3CCC4=CC(=O)CCC4=C3C=C[C@@]21C [R1881]
[1]; [3]
  regulation of endogenous ELK4 mRNA upon treatment: not endogenous ELK4 mRNA, was up-regulated
[1]; [4]
  change in ELK4 (assay not targeting the fusion transcript): no change
[2]; [3]
  regulation of SLC45A3-ELK4 mRNA upon treatment: up-regulated
[2]; [4]
  induction of SLC45A3-ELK4: 25 fold
